This is an account of results in US4593104A, “2-halo-N-(azole-1-yl-methyl)-substituted acetanilides” (BASF Aktiengesellschaft, priority 1976, dated 1986).

Structures are written as SMILES.

Common to all, as to assay: preemergence treatment in the greenhouse, % damage
One data set relates to Beta vulg. The data set is classed as in vivo, Beta vulgaris. An excerpt: (§1) The vessels employed were plastic flowerpots having a volume of 300 cm^3; the substrate was a sandy loam containing about 1.5% humus. The seeds of the test plants (see Table 1) were sown shallow, and separated according to species. In the case of Cyperus esculentus, pregerminated tubers were planted. In the preemergence treatment, the active ingredients were then immediately applied to the surface of the soil. They were suspended or emulsified in water as the vehicle, and sprayed through atomizing nozzles. After the agents had been applied, the vessels were lightly sprinkler-irrigated to set germination and growth going, and to activate the chemical agents. The vessels were then covered with transparent plastic hoods until the plants had taken root. This cover ensured uniform germination of the test plants (to the extent that this was not impaired by the chemicals), and prevented readily volatile substances from evaporating.
(§2) For postemergence treatment, the plants were first grown to a height of from 3 to 10 cm, depending on their habit, before treated. Hoods were not placed on the pots. The experiments were set up in the greenhouse, hotter areas (25° to 40° C.) being preferred for heat-loving species, and 15° to 30° C. for plants from moderate climates. The experiments were carried out for from 4 to 6 weeks. During this period the plants were tended and their reaction to the various treatments was assessed. The following tables contain the substances investigated, the application rates in kg/ha of active ingredient, and the test plant species. Assessments were made on a 0 to 100 scale, 0 denoting no damage or normal emergence, and 100 denoting no emergence or complete destruction of at least the visible plant parts.

A further data set deals with Echin. c.g. It counts as in vivo.
Description: as §1, §2

Another data set relates to Setaria spp. It counts as in vivo.
Description: as §1, §2

A further data set deals with Bromus spp. It counts as in vivo.
Description: as §1, §2

A further data set concerns Alopec. myosur. It counts as in vivo.
Description: as §1, §2

The subject of the next data set is Matric. spp. The data set is classed as in vivo.
Description: as §1, §2

The subject of another data set is Glyc. max. The data set is classed as in vivo, Glycine max.
Description: as §1, §2

The next data set concerns Amar. retro. It counts as in vivo.
Description: as §1, §2

A further data set relates to Sorgh. halep. It counts as in vivo.
Description: as §1, §2

Another data set concerns Cyp. diff. It counts as in vivo.
Description: as §1, §2

With `Cc1cnn(CN(C(=O)CCl)c2c(C)cccc2C)c1`, the “% damage” value came to 0% with Beta vulg. (0.5 kg/ha); 0% in the data set on Beta vulg. (1.0 kg/ha); 98% in the data set with Echin. c.g. (0.5 kg/ha); 98% in the data set on Echin. c.g. (1.0 kg/ha); 92% in the data set with Setaria spp. (0.5 kg/ha); 100% with Setaria spp. (1.0 kg/ha). Besides, the “% damage” value with Bromus spp. (0.5 kg/ha) was determined as 95%; in the data set on Bromus spp. (1.0 kg/ha), 95%; with Alopec. myosur. (0.5 kg/ha) it was 90%; with Alopec. myosur. (1.0 kg/ha) it was 95%; in the data set with Matric. spp. (0.5 kg/ha), 100%; in the data set with Matric. spp. (1.0 kg/ha), 100%. Also, the entries for the “% damage” value in the data set on Glyc. max (0.5 kg/ha) and in the data set on Glyc. max (1.0 kg/ha) were 0% and 10%, respectively.
In the case of `Cc1cccc(C)c1N(Cn1cc(Cl)cn1)C(=O)CCl`, the “% damage” value is given as 3% in the data set on Beta vulg. (1.0 kg/ha); 13% in the data set on Beta vulg. (2.0 kg/ha); 100% with Echin. c.g. (1.0 kg/ha); 100% in the data set with Echin. c.g. (2.0 kg/ha); 95% with Setaria spp. (1.0 kg/ha); 100% with Setaria spp. (2.0 kg/ha). The “% damage” value in the data set on Bromus spp. (1.0 kg/ha) was determined as 92%; with Bromus spp. (2.0 kg/ha), 95%; with Alopec. myosur. (1.0 kg/ha) it was 95%; in the data set on Alopec. myosur. (2.0 kg/ha), 100%; in the data set on Matric. spp. (1.0 kg/ha), 75%; in the data set with Matric. spp. (2.0 kg/ha) it was 80%. Further, the results for the “% damage” value with Glyc. max (1.0 kg/ha) and with Glyc. max (2.0 kg/ha) were 5% and 20%, respectively.
For `CCc1cccc(C)c1N(Cn1cc(Cl)cn1)C(=O)CCl`, the “% damage” value is reported as 0% in the data set on Beta vulg. (1.0 kg/ha); 100% in the data set on Echin. c.g. (1.0 kg/ha); 85% in the data set on Setaria spp. (1.0 kg/ha); 90% with Bromus spp. (1.0 kg/ha); 90% in the data set on Alopec. myosur. (1.0 kg/ha); 60% with Matric. spp. (1.0 kg/ha).
Take `CCc1cccc(C)c1N(Cn1cc(C)cn1)C(=O)CCl`: the “% damage” value with Echin. c.g. (3.0 kg/ha) is reported as 100%.
For `CC(C)c1ccccc1N(Cn1cccn1)C(=O)CCl` [Compound 4], the “% damage” value in the data set on Echin. c.g. (2.0 kg/ha) was 100%; in the data set on Amar. retro. (2.0 kg/ha), 95%; in the data set on Sorgh. halep. (2.0 kg/ha), 65%; in the data set with Setaria spp. (2.0 kg/ha), 90%; in the data set with Alopec. myosur. (2.0 kg/ha), 95%; with Cyp. diff. (2.0 kg/ha) it was 90%.
With `CCc1cccc(CC)c1N(Cn1cccn1)C(=O)CCl` [Compound 8], the “% damage” value was found to be 95% with Amar. retro. (0.25 kg/ha), 85% in the data set on Sorgh. halep. (0.25 kg/ha) and 100% in the data set on Bromus spp. (0.25 kg/ha).
Regarding `Cc1cccc(C(C)C)c1N(Cn1cccn1)C(=O)CCl` [Compound 9], the “% damage” value in the data set on Echin. c.g. (2.0 kg/ha) amounted to 100%; with Amar. retro. (2.0 kg/ha), 100%; in the data set on Sorgh. halep. (2.0 kg/ha), 90%; with Setaria spp. (2.0 kg/ha), 100%; in the data set with Alopec. myosur. (2.0 kg/ha), 100%; with Cyp. diff. (2.0 kg/ha), 100%.
As for `CC(C)c1cccc(C(C)C)c1N(Cn1cccn1)C(=O)CCl` [Compound 11], the “% damage” value with Echin. c.g. (2.0 kg/ha) stood at 100%; in the data set with Amar. retro. (2.0 kg/ha), 90%; in the data set on Sorgh. halep. (2.0 kg/ha), 70%; in the data set with Setaria spp. (2.0 kg/ha), 80%; in the data set with Alopec. myosur. (2.0 kg/ha), 90%; in the data set with Cyp. diff. (2.0 kg/ha), 100%.
With `Cc1cc(C)c(N(Cn2cccn2)C(=O)CCl)c(C)c1` [Compound 13], the “% damage” value in the data set on Echin. c.g. (2.0 kg/ha) is 100%; in the data set with Amar. retro. (2.0 kg/ha) it was 100%; in the data set with Sorgh. halep. (2.0 kg/ha), 80%; in the data set on Setaria spp. (2.0 kg/ha), 90%; with Alopec. myosur. (2.0 kg/ha) it was 80%; in the data set with Cyp. diff. (2.0 kg/ha), 90%.
With `Cc1cccc(N(Cn2cccn2)C(=O)CCl)c1C` [Compound 17], the “% damage” value came to 100% with Echin. c.g. (2.0 kg/ha); 90% in the data set on Amar. retro. (2.0 kg/ha); 75% in the data set with Sorgh. halep. (2.0 kg/ha); 90% in the data set with Setaria spp. (2.0 kg/ha); 50% in the data set with Alopec. myosur. (2.0 kg/ha); 100% with Cyp. diff. (2.0 kg/ha).
Regarding `CCc1ccccc1N(Cn1nc(C)cc1C)C(=O)CCl` [Compound 36], the “% damage” value in the data set on Echin. c.g. (0.5 kg/ha) was 80%; in the data set with Echin. c.g. (1.0 kg/ha), 95%; in the data set with Amar. retro. (0.5 kg/ha) it was 95%; in the data set with Amar. retro. (1.0 kg/ha), 95%; with Sorgh. halep. (0.5 kg/ha), 40%; with Sorgh. halep. (1.0 kg/ha) it was 40%. The “% damage” value in the data set with Setaria spp. (0.5 kg/ha) is given as 90%; in the data set on Setaria spp. (1.0 kg/ha) it was 95%; with Alopec. myosur. (0.5 kg/ha) it was 90%; with Alopec. myosur. (1.0 kg/ha), 100%.
For `Cc1cc(C)n(CN(C(=O)CCl)c2ccccc2C(C)C)n1` [Compound 37], the “% damage” value with Echin. c.g. (1.0 kg/ha) was 100%; with Amar. retro. (1.0 kg/ha), 100%; with Sorgh. halep. (1.0 kg/ha) it was 80%; in the data set on Setaria spp. (1.0 kg/ha) it was 100%; in the data set with Alopec. myosur. (1.0 kg/ha) it was 30%; with Cyp. diff. (1.0 kg/ha), 100%.
Regarding `Cc1cc(C)n(CN(C(=O)CCl)c2c(C)cccc2C(C)C)n1` [Compound 42], the “% damage” value is 100% in the data set on Echin. c.g. (1.0 kg/ha); 100% in the data set with Amar. retro. (1.0 kg/ha); 90% in the data set with Sorgh. halep. (1.0 kg/ha); 100% in the data set on Setaria spp. (1.0 kg/ha); 95% in the data set with Alopec. myosur. (1.0 kg/ha); 100% in the data set with Cyp. diff. (1.0 kg/ha).
As to `Cc1cc(C)n(CN(C(=O)CCl)c2c(C(C)C)cccc2C(C)C)n1` [Compound 44], the “% damage” value in the data set on Echin. c.g. (2.0 kg/ha) is recorded as 90%; in the data set with Amar. retro. (2.0 kg/ha), 80%; in the data set with Sorgh. halep. (2.0 kg/ha), 40%; in the data set on Setaria spp. (2.0 kg/ha) it was 90%; in the data set on Alopec. myosur. (2.0 kg/ha), 80%; in the data set on Cyp. diff. (2.0 kg/ha), 100%.
In the case of `Cc1cc(C)c(N(Cn2nc(C)cc2C)C(=O)CCl)c(C)c1` [Compound 46], the “% damage” value came out at 100% in the data set on Echin. c.g. (1.0 kg/ha); 90% in the data set with Amar. retro. (1.0 kg/ha); 80% with Sorgh. halep. (1.0 kg/ha); 100% in the data set with Setaria spp. (1.0 kg/ha); 60% in the data set with Alopec. myosur. (1.0 kg/ha); 100% with Cyp. diff. (1.0 kg/ha).
In the case of `Cc1cc(C)n(CN(C(=O)CCl)c2cccc(C)c2C)n1` [Compound 50], the “% damage” value was determined as 100% in the data set on Echin. c.g. (1.0 kg/ha); 100% in the data set with Amar. retro. (1.0 kg/ha); 70% in the data set with Sorgh. halep. (1.0 kg/ha); 100% in the data set on Setaria spp. (1.0 kg/ha); 90% in the data set with Alopec. myosur. (1.0 kg/ha); 100% in the data set on Cyp. diff. (1.0 kg/ha).
As for `Cc1ccc(C)c(N(Cn2nc(C)cc2C)C(=O)CCl)c1` [Compound 52], the “% damage” value in the data set with Echin. c.g. (2.0 kg/ha) came out at 95%; in the data set on Amar. retro. (2.0 kg/ha) it was 100%; with Sorgh. halep. (2.0 kg/ha), 60%; in the data set on Setaria spp. (2.0 kg/ha) it was 90%; with Alopec. myosur. (2.0 kg/ha) it was 60%; in the data set on Cyp. diff. (2.0 kg/ha) it was 100%.
Take `Cc1ccn(CN(C(=O)CCl)c2c(C)cccc2C)n1` [Compound 67]: the “% damage” value with Amar. retro. (0.25 kg/ha) is reported as 100%; in the data set with Sorgh. halep. (0.25 kg/ha), 95%; with Bromus spp. (0.25 kg/ha) it was 100%.
With `CCc1cccc(CC)c1N(Cn1ccc(C)n1)C(=O)CCl` [Compound 70], the “% damage” value in the data set with Amar. retro. (0.25 kg/ha) is 100%; with Sorgh. halep. (0.25 kg/ha), 75%; in the data set on Bromus spp. (0.25 kg/ha) it was 100%.
Take `CCc1cccc(CC)c1N(Cn1nc(C)c(Cl)c1C)C(=O)CCl` [Compound 108]: the “% damage” value was 100% in the data set with Echin. c.g. (2.0 kg/ha); 100% in the data set with Amar. retro. (2.0 kg/ha); 60% with Sorgh. halep. (2.0 kg/ha); 90% in the data set on Setaria spp. (2.0 kg/ha); 70% in the data set with Alopec. myosur. (2.0 kg/ha); 100% with Cyp. diff. (2.0 kg/ha).
Regarding `Cc1cccc(C(C)C)c1N(Cn1cncn1)C(=O)CCl` [Compound 131], the “% damage” value with Echin. c.g. (2.0 kg/ha) is recorded as 100%; in the data set with Amar. retro. (2.0 kg/ha), 80%; with Sorgh. halep. (2.0 kg/ha), 80%; in the data set on Setaria spp. (2.0 kg/ha), 100%; in the data set with Alopec. myosur. (2.0 kg/ha), 70%; in the data set on Cyp. diff. (2.0 kg/ha), 100%.
As for `Cc1cccc(N(Cn2cncn2)C(=O)CCl)c1C` [Compound 139], the “% damage” value in the data set on Echin. c.g. (2.0 kg/ha) is on record as 90%; in the data set on Amar. retro. (2.0 kg/ha), 40%; in the data set with Sorgh. halep. (2.0 kg/ha) it was 50%; in the data set with Setaria spp. (2.0 kg/ha) it was 30%; with Alopec. myosur. (2.0 kg/ha), 70%; in the data set on Cyp. diff. (2.0 kg/ha), 90%.
For the molecule `CCc1cccc(CC)c1N(Cn1nc(C)nc1C)C(=O)CCl` [Compound 162], the “% damage” value in the data set with Echin. c.g. (2.0 kg/ha) amounted to 100%; with Amar. retro. (2.0 kg/ha), 100%; in the data set on Sorgh. halep. (2.0 kg/ha), 95%; with Setaria spp. (2.0 kg/ha), 100%; in the data set with Alopec. myosur. (2.0 kg/ha) it was 95%; with Cyp. diff. (2.0 kg/ha), 100%.
